# Patent publication US11926626B2, “Heterocyclic GLP-1 agonists” (Gasherbrum Bio, Inc., priority 2020, dated 2024)
# Biological target: GLP-1 Receptor (Homo sapiens, UniProt P43220)
# Assay: GLP-1R agonist cAMP stimulation assay (HEK293/GLP1R/CRE-Luc cells, HTRF cAMP)
# Type: cell-based
# Conditions: HEK293/CRE-Luc cells stably expressing GLP-1 Receptor; 30 min, 37° C.
# Chain of GLP-1 Receptor (P43220 24-463): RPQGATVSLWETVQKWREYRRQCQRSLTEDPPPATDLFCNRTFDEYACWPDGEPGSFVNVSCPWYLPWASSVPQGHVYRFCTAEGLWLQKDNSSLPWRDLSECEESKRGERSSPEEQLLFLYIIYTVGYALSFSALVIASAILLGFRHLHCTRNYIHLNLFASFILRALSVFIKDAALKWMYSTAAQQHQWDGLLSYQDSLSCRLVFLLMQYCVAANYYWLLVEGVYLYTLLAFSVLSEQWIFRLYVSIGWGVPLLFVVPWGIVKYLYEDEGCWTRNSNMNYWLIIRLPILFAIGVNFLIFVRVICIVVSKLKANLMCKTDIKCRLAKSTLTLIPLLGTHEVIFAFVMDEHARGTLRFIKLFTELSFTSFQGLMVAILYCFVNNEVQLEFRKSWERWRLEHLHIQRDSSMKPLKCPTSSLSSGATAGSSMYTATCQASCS
row,GLP1R cAMP Stimulation DR: pEC50,SMILES
1,8.9,"O=C(O)c1ccc2nc(CN3CCC(Oc4ccnc(Cc5ccc(Cl)cc5)n4)CC3)n(C[C@H]3CCOC3)c2n1 [Compound 196a, (R)-2-((4-((2-(4-chlorobenzyl)pyrimidin-4-yl)oxy)piperidin-1-yl)methyl)-3-((tetrahydrofuran-3-yl)methyl)-3H-imidazo[4,5-b]pyridine-5-carboxylic acid]"
2,8.6,"O=C(O)c1ccc2nc(CN3CCC(Oc4nc(Cc5ccc(Cl)cc5)ncc4F)CC3)n(C[C@H]3CCOC3)c2n1 [Compound 197a, (R)-2-((4-((2-(4-chlorobenzyl)-5-fluoropyrimidin-4-yl)oxy)piperidin-1-yl)methyl)-3-((tetrahydrofuran-3-yl)methyl)-3H-imidazo[4,5-b]pyridine-5-carboxylic acid]"
3,9.2,"O=c1[nH]c(-c2ccc3nc(CN4CCC(Oc5ccnc(Cc6ccc(Cl)cc6)n5)CC4)n(C[C@@H]4CCO4)c3n2)no1 [Compound 198a, (S)-3-(2-((4-((2-(4-chlorobenzyl)pyrimidin-4-yl)oxy)piperidin-1-yl)methyl)-3-(oxetan-2-ylmethyl)-3H-imidazo[4,5-b]pyridin-5-yl)-1,2,4-oxadiazol-5(4H)-one]"
4,7.1,"NC(=O)c1ccc2nc(CN3CCC(Oc4ccnc(Cc5ccc(Cl)cc5)n4)CC3)n(C[C@@H]3CCO3)c2n1 [Compound 200a, (S)-2-((4-((2-(4-chlorobenzyl)pyrimidin-4-yl)oxy)piperidin-1-yl)methyl)-3-(oxetan-2-ylmethyl)-3H-imidazo[4,5-b]pyridine-5-carboxamide]"
5,6.4,"O=C(O)c1ccc2nc(CN3CC4CC(Oc5ccnc(Cc6ccc(Cl)cc6)n5)CC4C3)n(C[C@@H]3CCO3)c2n1 (stereo partly drawn) [Compound 201a, 2-{[5-({2-[(4-chlorophenyl)methyl]pyrimidin-4-yl}oxy)-octahydrocyclopenta[c]pyrrol-2-yl]methyl}-3-{[(2S)-oxetan-2-yl]methyl}-3H-imidazo[4,5-b]pyridine-5-carboxylic acid]"
